# Calls of active or inactive are those of the source. The calls are words filed in the database; no cut-off is given here.
# Experiments:
# [1] = molecular target: Sodium-dependent serotonin transporter (Homo sapiens, UniProt P31645); assay: biochemical; type: cell-based, HEK293
# [2] = molecular target: T1, D(2) dopamine receptor (Homo sapiens, UniProt P14416); assay: Displacement of [3H]spiperone from D2 receptor
# [3] = tested on: Mus musculus; assay: Antipsychotic activity in ip dosed AIC mouse model assessed as stereotype effects; type: functional
# [4] = molecular target: T2, 5-hydroxytryptamine receptor 2B (Homo sapiens, UniProt P41595); assay: Binding affinity to 5-HT2B receptor
# [5] = tested on: Mus musculus; assay: Inhibition of catalepsy in mouse at 10 mg/kg, ip after 90 mins; type: functional
# [6] = molecular target: 5-hydroxytryptamine receptor 2A (Homo sapiens, UniProt P28223); assay: Agonist activity at 5-HT2A receptor; type: functional
# [7] = tested on: Mus musculus; assay: Antipsychotic activity in ip dosed AIC mouse model assessed as climbing response; type: functional
# [8] = molecular target: T3, Adrenergic receptor alpha-1 (Rattus norvegicus, UniProt P15823+P23944+P43140); assay: Binding affinity to alpha1 adrenergic receptor in rat brain membrane by radioligand binding assay; type: cell membranes
# T3 sequence (P15823 whole entry): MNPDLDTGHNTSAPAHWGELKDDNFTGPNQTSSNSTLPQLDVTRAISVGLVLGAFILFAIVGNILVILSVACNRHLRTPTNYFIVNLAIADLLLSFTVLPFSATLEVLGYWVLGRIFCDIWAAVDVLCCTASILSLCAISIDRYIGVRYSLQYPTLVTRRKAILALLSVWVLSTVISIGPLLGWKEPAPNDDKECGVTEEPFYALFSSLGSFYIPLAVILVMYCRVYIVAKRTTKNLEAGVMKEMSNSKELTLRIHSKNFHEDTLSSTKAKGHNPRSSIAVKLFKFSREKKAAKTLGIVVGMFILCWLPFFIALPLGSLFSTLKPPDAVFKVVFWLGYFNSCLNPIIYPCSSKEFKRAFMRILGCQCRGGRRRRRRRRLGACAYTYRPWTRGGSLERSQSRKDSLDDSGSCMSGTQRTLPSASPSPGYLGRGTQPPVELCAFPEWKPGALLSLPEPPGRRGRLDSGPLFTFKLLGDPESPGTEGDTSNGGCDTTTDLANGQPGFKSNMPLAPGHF
# T3 sequence (P23944 whole entry): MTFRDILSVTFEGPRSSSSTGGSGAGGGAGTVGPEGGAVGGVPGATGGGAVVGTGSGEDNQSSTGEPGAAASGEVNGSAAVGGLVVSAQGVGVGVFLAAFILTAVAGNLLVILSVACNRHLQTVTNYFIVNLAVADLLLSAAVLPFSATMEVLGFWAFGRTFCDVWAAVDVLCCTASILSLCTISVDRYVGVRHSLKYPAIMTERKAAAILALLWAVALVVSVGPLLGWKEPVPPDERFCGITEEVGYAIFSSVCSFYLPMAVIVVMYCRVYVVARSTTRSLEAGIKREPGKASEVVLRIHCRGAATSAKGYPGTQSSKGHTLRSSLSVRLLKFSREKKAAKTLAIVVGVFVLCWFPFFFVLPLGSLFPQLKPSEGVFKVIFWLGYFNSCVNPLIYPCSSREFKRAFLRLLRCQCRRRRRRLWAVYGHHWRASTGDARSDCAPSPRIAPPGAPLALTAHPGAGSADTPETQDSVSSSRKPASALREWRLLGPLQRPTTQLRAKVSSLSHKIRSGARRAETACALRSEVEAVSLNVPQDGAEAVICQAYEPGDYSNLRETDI
# T3 sequence (P43140 whole entry): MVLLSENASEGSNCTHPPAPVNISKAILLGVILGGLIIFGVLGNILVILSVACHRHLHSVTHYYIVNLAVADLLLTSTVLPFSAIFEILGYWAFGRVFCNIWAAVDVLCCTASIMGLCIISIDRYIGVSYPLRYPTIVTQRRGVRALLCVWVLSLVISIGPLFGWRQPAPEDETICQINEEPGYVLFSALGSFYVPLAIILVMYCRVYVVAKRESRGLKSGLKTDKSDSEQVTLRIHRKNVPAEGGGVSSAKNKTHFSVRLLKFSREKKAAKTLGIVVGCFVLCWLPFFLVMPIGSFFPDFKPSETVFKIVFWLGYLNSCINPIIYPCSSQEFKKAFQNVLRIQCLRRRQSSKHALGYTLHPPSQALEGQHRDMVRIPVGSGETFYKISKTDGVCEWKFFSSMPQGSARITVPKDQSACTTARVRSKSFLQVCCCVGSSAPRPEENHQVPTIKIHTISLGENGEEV
# [9] = molecular target: T1, D(2) dopamine receptor; assay: Ratio of drug to quinpirole for agonist activity at D2 receptor assessed as change in intracellular cAMP level by cell based assay; type: functional
# [10] = molecular target: T2, 5-hydroxytryptamine receptor 2B; assay: Agonist activity at human recombinant 5-HT2B receptor expressed in CHO-K1 cells assessed as increase in intracellular calcium level by FLIPR assay; type: functional, cell-based
# [11] = Selectivity of Ki for human serotonin transporter to Ki for rat alpha1 adrenergic receptor
# [12] = tested on: Rattus norvegicus; assay: Behavioral effect in CAR rat model assessed as reduction of avoidance response at 10 mg/kg, po; type: functional, organism-based; design: dose 10 mg/kg
# [13] = tested on: Rattus norvegicus; assay: Behavioral effect in CAR rat model assessed as increase in escape response at 10 mg/kg, ip; type: functional, organism-based; design: dose 10 mg/kg
# [14] = tested on: Rattus norvegicus; assay: Behavioral effect in CAR rat model assessed as reduction of avoidance response at 10 mg/kg, ip; type: functional, organism-based; design: dose 10 mg/kg
# [15] = tested on: Rattus norvegicus; assay: Behavioral effect in CAR rat model assessed as increase in escape response at 10 mg/kg, po; type: functional, organism-based; design: dose 10 mg/kg
# Sequence of Sodium-dependent serotonin transporter (P31645 whole entry): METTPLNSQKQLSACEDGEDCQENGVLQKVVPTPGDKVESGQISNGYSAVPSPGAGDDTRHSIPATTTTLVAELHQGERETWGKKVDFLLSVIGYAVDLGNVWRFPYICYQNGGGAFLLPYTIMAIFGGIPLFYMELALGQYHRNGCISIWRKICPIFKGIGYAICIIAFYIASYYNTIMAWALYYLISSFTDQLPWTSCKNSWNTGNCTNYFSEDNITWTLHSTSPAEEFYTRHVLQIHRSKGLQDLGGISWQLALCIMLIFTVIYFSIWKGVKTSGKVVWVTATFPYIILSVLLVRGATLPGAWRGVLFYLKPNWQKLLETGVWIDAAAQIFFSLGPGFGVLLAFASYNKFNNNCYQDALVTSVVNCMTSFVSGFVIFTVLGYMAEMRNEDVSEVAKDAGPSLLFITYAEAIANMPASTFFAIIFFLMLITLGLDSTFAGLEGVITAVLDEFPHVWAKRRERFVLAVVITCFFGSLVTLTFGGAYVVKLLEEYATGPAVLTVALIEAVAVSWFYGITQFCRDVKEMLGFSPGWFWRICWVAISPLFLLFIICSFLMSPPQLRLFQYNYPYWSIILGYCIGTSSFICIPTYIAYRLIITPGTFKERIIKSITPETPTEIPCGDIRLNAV
# Sequence of 5-hydroxytryptamine receptor 2A (P28223 whole entry): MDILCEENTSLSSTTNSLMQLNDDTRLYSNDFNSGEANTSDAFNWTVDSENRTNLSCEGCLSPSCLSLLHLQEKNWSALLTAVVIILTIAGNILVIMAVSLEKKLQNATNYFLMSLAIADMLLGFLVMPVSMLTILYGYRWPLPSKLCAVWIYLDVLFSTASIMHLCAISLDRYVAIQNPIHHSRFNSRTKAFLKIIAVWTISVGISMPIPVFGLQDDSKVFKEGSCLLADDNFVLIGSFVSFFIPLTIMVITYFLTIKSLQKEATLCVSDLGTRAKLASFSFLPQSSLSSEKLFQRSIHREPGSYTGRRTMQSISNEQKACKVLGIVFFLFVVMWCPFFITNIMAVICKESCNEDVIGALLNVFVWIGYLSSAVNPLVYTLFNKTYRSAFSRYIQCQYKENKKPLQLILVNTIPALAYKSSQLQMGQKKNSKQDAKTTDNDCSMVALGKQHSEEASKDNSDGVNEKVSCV
# T1 sequence (P14416 whole entry): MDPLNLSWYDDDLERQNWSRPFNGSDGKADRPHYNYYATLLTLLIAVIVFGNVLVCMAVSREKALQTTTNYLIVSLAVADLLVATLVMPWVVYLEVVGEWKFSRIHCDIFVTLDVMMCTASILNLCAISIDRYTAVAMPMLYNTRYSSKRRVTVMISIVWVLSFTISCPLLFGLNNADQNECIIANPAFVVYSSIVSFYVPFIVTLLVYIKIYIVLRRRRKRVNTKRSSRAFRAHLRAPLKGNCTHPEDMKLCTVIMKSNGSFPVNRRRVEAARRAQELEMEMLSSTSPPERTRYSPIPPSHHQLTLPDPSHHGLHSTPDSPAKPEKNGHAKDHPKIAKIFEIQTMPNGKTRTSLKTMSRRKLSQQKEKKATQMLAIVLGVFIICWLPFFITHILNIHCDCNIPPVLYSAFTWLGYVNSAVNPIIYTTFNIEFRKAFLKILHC
# T2 sequence (P41595 whole entry): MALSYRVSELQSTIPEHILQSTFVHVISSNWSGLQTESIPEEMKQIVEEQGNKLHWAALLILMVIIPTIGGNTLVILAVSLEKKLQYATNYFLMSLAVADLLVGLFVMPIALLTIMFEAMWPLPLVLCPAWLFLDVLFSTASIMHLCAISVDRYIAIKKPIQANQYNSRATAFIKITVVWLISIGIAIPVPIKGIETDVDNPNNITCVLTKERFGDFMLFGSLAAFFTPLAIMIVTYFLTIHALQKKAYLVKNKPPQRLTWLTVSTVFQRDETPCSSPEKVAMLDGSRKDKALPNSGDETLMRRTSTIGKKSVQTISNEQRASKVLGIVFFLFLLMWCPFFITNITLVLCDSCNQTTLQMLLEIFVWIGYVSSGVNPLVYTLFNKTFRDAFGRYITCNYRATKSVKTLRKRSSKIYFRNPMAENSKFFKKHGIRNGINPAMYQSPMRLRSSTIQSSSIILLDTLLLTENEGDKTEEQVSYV
structure (smiles),measurement,setting,value
O=c1[nH]c2cccc(N3C[C@H]4C[C@@H]3CN4CC3CCc4[nH]c5ccc(F)cc5c4C3)c2o1 (stereo not given in full) [listing 1 of 3 here],Ki,[1],460 nM
same,Ki,[2],12 nM
O=C1Cc2c(ccc3c2OC[C@H](CNCCC2CCc4[nH]c5ccc(F)cc5c4C2)O3)N1 (stereo not given in full) [listing 1 of 2 here],Ki,[1],24 nM
same,Ki,[2],24 nM
O=C1Cc2c(cccc2N2CCN(CCC3CCc4[nH]c5ccc(F)cc5c4C3)CC2)N1 (stereo not given),Ki,[1],4700 nM
same,Ki,[2],15 nM
O=c1[nH]c2cccc(OC3CCN(CCC4CCc5[nH]c6ccc(F)cc6c5C4)CC3)c2o1 (stereo not given),Ki,[1],1200 nM
same,Ki,[2],310 nM
O=C1Cc2c(ccc3c2OC[C@H](CNCC2CCc4c([nH]c5ccc(F)cc45)C2)O3)N1 (stereo not given in full),Ki,[1],25 nM
same,Ki,[2],100 nM
O=C1Cc2c(ccc3c2OC[C@H](CNCCC2CCc4c([nH]c5ccc(F)cc45)C2)O3)N1 (stereo not given in full),Ki,[1],5200 nM
same,Ki,[2],36 nM
O=c1[nH]c2cccc(CN3CCN(CC4CCc5[nH]c6ccc(F)cc6c5C4)CC3)c2o1 (stereo not given),Ki,[1],41 nM
same,Ki,[2],120 nM
O=c1[nH]c2cccc(N3C[C@H]4C[C@@H]3CN4CC3CCc4[nH]c5ccc(F)cc5c4C3)c2o1 (stereo not given in full) [listing 2 of 3 here],ED50,[3],> 5 mg/kg
same,Ki,[4],165 nM
same,Ki,[1],8 nM
same,inhibition in vivo at 10 mg/kg,"[5]; 1.5 h, route intraperitoneal",48%
same,Ki,[2],14 nM
same,Ki,[6],1800 nM
same,ED50,[7],2.3 mg/kg
same,Ki,[8],65 nM
O=c1[nH]c2cccc(N3CCN(CC4CCc5c([nH]c6ccc(F)cc56)C4)CC3)c2o1 (stereo not given),Ki,[1],62 nM
same,Ki,[2],220 nM
O=c1[nH]c2cccc(OCC3CCN(CC4CCc5[nH]c6ccc(F)cc6c5C4)CC3)c2o1 (stereo not given),Ki,[4],110 nM
same,Ki,[1],0.4 nM
same,Ratio,[9],< 0.1
same,Activity,[10],inactive
same,Ki,[2],28 nM
same,Ki,[8],130 nM
O=c1[nH]c2cccc(OC3CCN(CC4CCc5[nH]c6ccc(F)cc6c5C4)CC3)c2o1 (stereo not given),Ki,[1],3 nM
same,Ki,[2],140 nM
O=c1[nH]c2cccc(N3CCN(CCCC4CCc5c([nH]c6ccc(F)cc56)C4)CC3)c2o1 (stereo not given),Ki,[1],62 nM
same,Ki,[2],50 nM
O=C1Cc2c(ccc3c2OC[C@H](CNCCC2CCc4[nH]c5ccc(F)cc5c4C2)O3)N1 (stereo not given in full) [listing 2 of 2 here],Ki,[1],21 nM
same,Ki,[2],24 nM
O=c1[nH]c2cccc(OCC3CCN(CCC4CCc5[nH]c6ccc(F)cc6c5C4)CC3)c2o1 (stereo not given),Ki,[1],10 nM
same,Ki,[2],720 nM
O=C1Cc2c(cccc2N2CCN(CC3CCc4[nH]c5ccc(F)cc5c4C3)CC2)N1 (stereo not given),Ki,[1],1140 nM
same,Ki,[2],15 nM
O=c1[nH]c2cccc(N3C[C@H]4C[C@@H]3CN4CC3CCc4[nH]c5ccc(F)cc5c4C3)c2o1 (stereo not given in full) [listing 3 of 3 here],Ratio Ki,[11],10
same,Ratio,[9],0.3
same,Activity,[10],inactive
"O=C1Cc2c(ccc3c2OC[C@H](CNCC2CCc4[nH]c5ccc(F)cc5c4C2)O3)N1 (single isomer, unassigned) [listing 1 of 2 here]",Ki,[4],130 nM
same,Ki,[1],7 nM
same,Ki,[2],3 nM
same,Ki,[6],2 nM
same,Ki,[8],0.5 nM
"O=C1Cc2c(ccc3c2OC[C@H](CNCC2CCc4[nH]c5ccc(F)cc5c4C2)O3)N1 (single isomer, unassigned) [listing 2 of 2 here]",Ratio Ki,[11],10
same,Ratio,[9],0.3
same,Activity,[10],inactive
"O=c1[nH]c2cccc(N3CCN(CC4CCc5[nH]c6ccc(F)cc6c5C4)CC3)c2o1 (single isomer, unassigned; 30)",Ki,[1],32 nM
same,Ki,[2],60 nM
"O=c1[nH]c2cccc(N3CCN(CC4CCc5[nH]c6ccc(F)cc6c5C4)CC3)c2o1 (single isomer, unassigned; 31) [listing 1 of 2 here]",ED50,[3],> 1 mg/kg
same,Ki,[4],680 nM
same,Ki,[1],22 nM
same,Ki,[2],17 nM
same,Ki,[6],130 nM
same,ED50,[7],0.5 mg/kg
same,Ki,[8],220 nM
"O=c1[nH]c2cccc(N3CCN(CC4CCc5[nH]c6ccc(F)cc6c5C4)CC3)c2o1 (single isomer, unassigned; 31) [listing 2 of 2 here]",Activity,[12],Active
same,Activity,[13],Active
same,Ratio,[9],0.6
same,Activity,[10],inactive
same,Activity,[14],Active
same,Activity,[5],inactive
same,Activity,[15],Active
O=C1Cc2c(ccc3c2OC[C@H](CNCCCC2CCc4c([nH]c5ccc(F)cc45)C2)O3)N1 (stereo in doubt; 22) [listing 1 of 2 here],Ki,[4],610 nM
same,Ki,[1],15 nM
same,Ki,[2],50 nM
same,Ki,[6],6 nM
same,Ki,[8],54 nM
O=C1Cc2c(ccc3c2OC[C@H](CNCCCC2CCc4c([nH]c5ccc(F)cc45)C2)O3)N1 (stereo in doubt; 22) [listing 2 of 2 here],Ratio Ki,[11],10
same,Ratio,[9],0.3
same,Activity,[10],inactive
O=C1Cc2c(ccc3c2OC[C@H](CNCCCC2CCc4c([nH]c5ccc(F)cc45)C2)O3)N1 (stereo in doubt; 23) [listing 1 of 2 here],Ki,[4],400 nM
same,Ki,[1],4 nM
same,Ki,[2],45 nM
same,Ki,[8],22 nM
O=C1Cc2c(ccc3c2OC[C@H](CNCCCC2CCc4c([nH]c5ccc(F)cc45)C2)O3)N1 (stereo in doubt; 23) [listing 2 of 2 here],Ratio Ki,[11],10
same,Ratio,[9],0.3
same,Activity,[10],inactive
O=C1Cc2c(ccc3c2OC[C@H](CNCC2CCc4[nH]c5ccc(F)cc5c4C2)O3)N1 (stereo in doubt; 25) [listing 1 of 2 here],Ki,[4],6 nM
same,Ki,[1],1 nM
same,Ki,[2],3 nM
same,Ki,[6],2 nM
same,Ki,[8],0.72 nM
O=C1Cc2c(ccc3c2OC[C@H](CNCC2CCc4[nH]c5ccc(F)cc5c4C2)O3)N1 (stereo in doubt; 25) [listing 2 of 2 here],Ratio Ki,[11],10
same,Ratio,[9],0.4
same,Activity,[10],inactive

# Reference: ChEMBL document CHEMBL1156031, “Tetrahydrocarbazole-based serotonin reuptake inhibitor/dopamine D2 partial agonists for the potential treatment of schizophrenia” (Bioorg Med Chem Lett, 2009)
